From US20160228446A1, “Combination Drug Therapy” (GLAXOSMITHKLINE LLC, priority 2013, published 2016)

Experiments:
[1] = system: LNCaP prostate cancer cells; test: Cell proliferation assay (CellTiter-Glo, total cellular ATP); format: cell-based; conditions: single agent; charcoal-stripped serum, 0.1 nM R1881, 7 days; percentage of DMSO-treated control
Description: Cells were grown in charcoal-stripped serum to deplete potential androgen from serum. Under these conditions, cell growth is dependent on exogenous androgen (e.g., R1881).
Androgen-dependent prostate cancer cell line, LNCaP, were grown in RPMI 1640 culture medium supplemented with 10% charcoal-stripped fetal bovine serum for 24 hours in 96-well tissue culture plates at a density of 1,000 cells per well. Cells were treated with various concentrations of compounds A or B alone and in combination in the presence of synthetic androgen (R1881, Sigma-Aldrich, St. Louis, Mo.). After 7 days, total cellular ATP was measured using the CellTiter-Glo Luminescent Cell Viability Assay (Promega, Madison, Wis.) on an EnVision plate reader. Background counts from wells containing no cells were subtracted and the data is presented as a percentage of the DMSO-treated control cells.

LNCaP cells = test: Luminescent caspase 3/7 assay; format: cell-based; conditions: single agent 5 uM, five days, normalized to ATP signal
Description: Caspase 3/7 activity was normalized and plotted as a percentage of the untreated control samples. Data for 2 independent experiments (N=1, N=2) is shown and represents mean±std dev from duplicate treatments. Tumor cells were seeded in 96-well white tissue culture plates in 100 μL growth media (media with 10% FBS) or CSS media (media with 10% charcoal stripped fetal bovine serum). LNCaP cells were seeded at a density of 1,000 cells per well. Approximately 24 hr after plating, duplicate or triplicate plates of cells were treated with indicated compounds for both luminescent caspase-3/7 and CTG readings. At the end of the 5 days of incubations, half of the plates were lysed and caspase-3/7 activity was measured using the Caspase-Glo® 3/7 Assay (Promega) according to the manufacturer's protocol. Caspase-Glo reagent was added to each plate, incubated for at least 45 minutes, and luminescent signal was read on the EnVision Multilabel Plate Reader with a 0.1 sec integration time. The remaining plates were lysed and ATP levels were measured using the CTG assay. The caspase-3/7 signal was normalized to the ATP signal. The normalized values were expressed as a percentage of the control wells.

[2] = system: prostate cancer xenograft models; conditions: in vivo; cited from earlier work
androgen receptor = androgen receptor (Homo sapiens, UniProt P10275); conditions: cited from earlier work
Chain of androgen receptor (P10275 whole entry, species assumed): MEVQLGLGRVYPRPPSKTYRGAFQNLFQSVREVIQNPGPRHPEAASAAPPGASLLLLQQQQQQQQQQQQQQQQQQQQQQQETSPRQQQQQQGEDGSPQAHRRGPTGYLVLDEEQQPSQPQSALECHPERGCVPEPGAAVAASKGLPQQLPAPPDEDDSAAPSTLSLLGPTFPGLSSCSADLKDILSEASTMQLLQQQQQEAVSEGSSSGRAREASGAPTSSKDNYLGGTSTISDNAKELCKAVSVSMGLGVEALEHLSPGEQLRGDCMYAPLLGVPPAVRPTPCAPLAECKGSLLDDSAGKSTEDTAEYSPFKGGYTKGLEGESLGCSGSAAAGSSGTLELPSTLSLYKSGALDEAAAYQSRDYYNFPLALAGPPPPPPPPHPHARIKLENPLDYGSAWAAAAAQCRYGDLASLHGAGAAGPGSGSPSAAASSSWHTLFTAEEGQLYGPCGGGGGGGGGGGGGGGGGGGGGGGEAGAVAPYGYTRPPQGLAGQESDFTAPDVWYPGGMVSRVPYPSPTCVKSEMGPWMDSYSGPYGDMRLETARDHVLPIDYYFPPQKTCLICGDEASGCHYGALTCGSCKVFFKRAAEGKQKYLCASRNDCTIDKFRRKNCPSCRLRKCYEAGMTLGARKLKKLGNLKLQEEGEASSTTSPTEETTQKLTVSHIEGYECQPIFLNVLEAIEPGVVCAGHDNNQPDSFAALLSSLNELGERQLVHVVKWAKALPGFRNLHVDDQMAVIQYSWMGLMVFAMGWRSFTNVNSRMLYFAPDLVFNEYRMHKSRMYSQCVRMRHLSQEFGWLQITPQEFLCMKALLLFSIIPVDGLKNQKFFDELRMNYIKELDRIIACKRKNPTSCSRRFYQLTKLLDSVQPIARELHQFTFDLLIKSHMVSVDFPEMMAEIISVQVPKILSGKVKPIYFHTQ

phospho-AKT = test: Immunoblot assay, AKT phosphorylation; format: cell-based; conditions: LNCaP cells, Compound B 3 or 10 uM, 0.1 nM R1881, six hours
Description: LNCaP cells were treated with Compound B (3 or 10 uM) alone or in presence of compound A (3 uM), all in presence of 0.1 nM synthetic androgen (R1881).
LNCaP cells were grown in RPMI 1640 culture medium supplemented with 10% charcoal-stripped fetal bovine serum for 48 hours in 6-well tissue culture plates at a density of 500,000 cells per well. Cells were treated with the indicated compounds for six hours, washed with PBS, and whole cell lysates were prepared in RIPA buffer (Teknova, Hollister, Calif.). Cell lysates were clarified by centrifugation at 20,000 relative centrifugal force, 4° C., and protein was quantified using the BCA Protein Assay Kit (Pierce, Rockford, Ill.). Equal amounts of protein lysates were separated by SDS-PAGE using a 4-12% Bis-Tris polyacrylamide gel (Life Technologies) and transferred to a nitrocellulose membrane and incubated with antibodies against total and phospho-AKT, phospho-PRAS40, total and phospho-S6, androgen receptor, and FKBP5. Following incubation with primary antibody, blots were washed and incubated with IRDye-800 anti-mouse or IRDye-680 anti-rabbit antibodies for 1 h. Following thorough washing, blots were analyzed using an infrared imaging system (LI-COR).

phospho-S6 = test: Immunoblot assay, phospho-S6; format: cell-based; conditions: LNCaP cells, Compound B 3 or 10 uM alone or with compound A 3 uM, 0.1 nM R1881, six hours

Row | SMILES | LNCaP cell growth [1] | induction of caspase 3/7 activity (LNCaP cells) | anti-proliferative activity in prostate cancer xenograft models [2] | affinity for the androgen receptor (androgen receptor) | AKT phosphorylation (phospho-AKT) | phospho-S6 (phospho-S6)
1 | CNC(=O)c1ccc(N2C(=S)N(c3ccc(C#N)c(C(F)(F)F)c3)C(=O)C2(C)C)cc1F [Compound A, 4-(3-(4-Cyano-3-(trifluoromethyl)phenyl)-5,5-dimethyl-4-oxo-2-thioxoimidazolidin-1-yl)-2-fluoro-N-methylbenzamide] | inhibited | minimal induction |  |  |  | 
2 | CC(O)c1cc(C(=O)N[C@@H](C)Cn2ccc(-c3ccc(C#N)c(Cl)c3)n2)[nH]n1 (some centres unmarked) [ODM-201] |  |  | anti-proliferative activity | high affinity |  | 
3 | Cc1c(Cn2c(C)nc3c(C(=O)O)cc(N4CCOCC4)cc32)cccc1C(F)(F)F [Compound B, 2-methyl-1-{[2-methyl-3-(trifluoromethyl)phenyl]methyl}-6-(4-morpholinyl)-1H-benzimidazole-4-carboxylic acid] | inhibited the growth | minimal induction |  |  | inhibited AKT phosphorylation | inhibition of phospho-S6
